We go through 3 compounds from patent publication US12257306B2, “Antiviral prodrugs and nanoformulations thereof” (Board of Regents of the University of Nebraska, priority 2018, dated 2025).

In experiment [1] the test system is HIV-1ADA. Nature of the experiment: Antiretroviral efficacy of prodrugs by HIV reverse transcriptase (RT) activity in MDM. The format is cell-based. To be noted: MDM treated 8 hours, 0.01-1000 nM, challenged with HIV-1ADA MOI 0.01; FIG. 2A. The protocol:
The DTG prodrugs M3DTG and M4DTG were studied. First, antiretroviral efficacy was determined by measurement of HIV reverse transcriptase (RT) activity. To assess antiretroviral efficacy, monocyte-derived macrophage (MDM) were treated with either M3DTG or M4DTG for 8 hours over a range of concentrations (0.01-1000 nM). Drug was dosed in 0.1% (v/v) DMSO in media. After treatment, cells were washed with PBS to remove excess of free drug and nanoparticles and the cells were cultured with fresh media, with half-media exchanges every other day. The MDM were challenged with HIV-1ADA at a MOI of 0.01 infectious viral particles/cell for up to 30 days. Progeny virion production was measured by RT activity in culture medium (Kalter, et al. (1992) J. Clin. Microbiol., 30(4):993-995).

In experiment [2] the test system is HIV-1. As to conditions: plasma, cited from earlier work; for 4×PA-IC90: four times protein-adjusted 90% inhibitory concentration.

On to `C[C@@H]1CCO[C@H]2Cn3cc(C(=O)NCc4ccc(F)cc4F)c(=O)c(OC(=O)CCCCCCCC(=O)Oc4c5n(cc(C(=O)NCc6ccc(F)cc6F)c4=O)C[C@@H]4OCC[C@@H](C)N4C5=O)c3C(=O)N12` [M3DTG], for which the “antiretroviral activity (HIV-1 RT activity)” value in experiment [1] was “significant antiretroviral activity”.
Regarding `C[C@H]1CO[C@@H]2Cn3cc(C(=O)NCc4ccc(F)cc4F)c(=O)c(O)c3C(=O)N12` [CAB, cabotegravir], in experiment [2], the “4×PA-IC90” value is reported as 660 ng/mL.
With `C[C@@H]1CCO[C@H]2Cn3cc(C(=O)NCc4ccc(F)cc4F)c(=O)c(O)c3C(=O)N12` [DTG, dolutegravir], the “4×PA-IC90” value in experiment [2] was 256 ng/mL. Moreover, the PA-IC90 in experiment [2] (protein-adjusted 90% inhibitory concentration) is 64 ng/mL.
